Results taken from the supplement of paper PMC6723410.

Test system: GUMC-403
Test: viability at highest tested concentration (max response) relative to DMSO (% of DMSO control); higher = less cytotoxic
Settings: library / dose series: MIPE library, 11-point 1:3 dilution, 48 h
In short: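 Conditionally reprogrammed GUMC-403 papilloma cells from a patient were plated at 700/well in 5 μL F + Y medium in 1536-well plates and left overnight at 37 °C. A pin tool then added 23 nL of library compounds as an 11-point 1:3 series, for 48 h. CellTiter-Glo luminescence was read on a ViewLux and scaled with vehicle wells set to 100% and empty wells to 0%. Each value gives viability at the highest tested concentration relative to vehicle control.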

| SMILES | viability (top concentration 46.1 µM) | further results |
| --- | --- | --- |
| CN1C(=O)C(=C\C2=C1N=C(NC3=CC=CC(=C3)C(O)=O)N=C2)/C4=C(Cl)C=CC=C4Cl | 148 |  |
| CNC1CCC(N(Cc2cccc(-c3ccncc3)c2)C(=O)c2sc3c(F)ccc(F)c3c2Cl)CC1 (stereo not drawn) | 75.5 |  |
| C[C@](Cc1c[nH]c2ccccc12)(NC(=O)OC1C2CC3CC(C2)CC1C3)C(=O)NC[C@H](NC(=O)CCC(=O)O)c1ccccc1 (stereo partly drawn) | 103 |  |
| CCCCc1oc2ccccc2c1C(=O)c1cc(I)c(OCCN(CC)CC)c(I)c1 | 95.4 |  |
| COc1ccccc1N1CCN(CCN(C(=O)C2CCCCC2)c2ccccn2)CC1 | 95.3 |  |
| NC(=O)Cc1cccc(C(=O)c2ccccc2)c1N | 112 |  |
| COc1ccc([S+](=O)([O-])N(C(C)=O)c2ccccc2/C=C/c2cc[n+]([O-])cc2)cc1 | 60.2 |  |
| CC(C)C1CCC(C(=O)N[C@H](Cc2ccccc2)C(=O)O)CC1 (stereo partly drawn) | 85.9 |  |
| CN(N=O)C(=O)N[C@H]1C(O)OC(CO)[C@@H](O)[C@@H]1O (stereo partly drawn) | 113 |  |
| Cc1c(C)c2c(c(C)c1O)CCC(C)(COc1ccc(CC3SC(=O)NC3=O)cc1)O2 (stereo not drawn) | 82 |  |
| CN(CC(=O)N(Cc1ccc(C2CCCCC2)cc1)c1ccc(C(=O)O)c(O)c1)[S+](=O)([O-])c1c(F)c(F)c(F)c(F)c1F | 112 |  |
| O=C(O)Cc1cccc(OCCCN(Cc2cccc(C(F)(F)F)c2Cl)CC(c2ccccc2)c2ccccc2)c1 | 136 |  |
| CC1(C)CCC(=C(CN2CCN(CC2)C3=CC=C(C=C3)C(=O)N[S+]([O-])(=O)C4=CC(=C(N[C@H](CCN5CCOCC5)CSC6=CC=CC=C6)C=C4)[S+]([O-])(=O)C(F)(F)F)\C1)/C7=CC=C(Cl)C=C7 | 97 |  |
| CC1(C)[C@@H](O)CC[C@@]2(C)[C@H]1CC[C@]3(C)[C@@H]2C(=O)\C=C/4[C@@H]5C[C@](C)(CC[C@]5(C)CC[C@@]34C)C(O)=O | 117 |  |
| COc1ccc(-c2c(-c3ccc(O)cc3O)n[nH]c2C)cc1 |  | viability (top concentration 92.2 µM): 98.3 |
| COC1=CC=C2CN(C)CC[C@@]34\C=C/[C@H](O)C[C@@H]3OC1=C24 | 122 |  |
| CNC(=O)C1=CC=C(C)C(=C1)N2C(=C/C(=C(/Br)C2=O)OCC3=C(F)C=C(F)C=C3)\C | 109 |  |
| CC/1=C(/N2[C@H](SC1)[C@H](NC(=O)[C@H](N)\C3=C\C\C=C/C3)C2=O)C(O)=O | 121 |  |
| OC1=CC2=C(C(=C1)O)C(=O)\C=C(/O2)C3=CC=CC=C3 | 126 |  |
| CN(C)CC(=O)N1CCC(CC1)C2=CC=C(NC(=O)C3=NC(=C[NH]3)C#N)C(=C2)\C4=C\CCCC4 | 129 |  |
| CC(C)[N+]1(C)C2CCC1CC(OC(=O)C(CO)c1ccccc1)C2.O.[Br-] (stereo not drawn) | 109 |  |
| CC(C)(C)[C@H](NC(=O)c1ccc(N)c(Cl)c1)C(=O)N1CCC[C@H]1C(=O)N[C@H](C#N)CC(=O)O |  | viability (top concentration 4.61 µM): 131 |
| O=C(Nc1cccc2c(=O)cc(-c3nnn[nH]3)oc12)c1ccc(OCCCCc2ccccc2)cc1 | 87 |  |
| CCN(CC)CCOC1=CC=C(NC2=NC=C3\C=C(/C(=O)N(C)C3=N2)C4=C(Cl)C=CC=C4Cl)C=C1 | 75.4 |  |
| CN(C)CCN1C(=O)c2cccc3cc(N)cc(c23)C1=O | 62.2 |  |
| Cc1nc2c([nH]1)-c1ccccc1N(C(=O)c1ccc(NC(=O)c3ccccc3-c3ccccc3)cc1)CC2 | 126 |  |

| SMILES | viability (top concentration 46.1 µM) | further results |
| --- | --- | --- |
| Cn1c(=O)n(-c2ccc(C(C)(C)C#N)cc2)c2c3cc(-c4cnc5ccccc5c4)ccc3ncc21 | 73.3 |  |
| NC(=O)c1cnccn1 | 131 |  |
| C[C@@H]1C(=O)OC2[C@H](O)[C@]34[C@H]5C[C@@H](C(C)(C)C)[C@]36[C@@H](OC(=O)[C@@H]6O)O[C@@]4(C(=O)O5)[C@]21O (stereo partly drawn) | 108 |  |
| Cc1ccc(CN2CCNCC2)cc1NC(=O)CNc1ccc(F)c(F)c1 | 98.9 |  |
| CC(C)(C)NCC(O)c1ccc(O)c(CO)c1 (stereo not drawn) | 109 |  |
| CCCCCOC(=O)NC\1=N\C(=O)N(\C=C1F)[C@@H]2O[C@H](C)[C@@H](O)[C@H]2O | 83.9 |  |
| CC(=O)OCCN1C(=O)c2c(C)nc3ccc([S+](=O)([O-])N4CCOCC4)cc3c2C1=O | 123 |  |
| N#Cc1ccc(COC[C@H]2O[C@@H](n3c(NCc4ccc(Cl)c(Cl)c4)nc4c(N)ncnc43)[C@H](O)[C@@H]2O)cc1 | 89 |  |
| OC1CCC(CC1)N2\C=N/C3=C(C2=N)C(=C([N]3CC4=CC=CC=C4)C5=CC=CC=C5)C6=CC=CC=C6 (stereo not drawn) | 126 |  |
| C=CCc1cccc(/C=N/NC(=O)CN2CCN(Cc3ccccc3)CC2)c1O | 73.5 |  |
| COc1ccccc1OCCNCC(O)COc1cccc2[nH]c3ccccc3c12 (stereo not drawn) | 102 |  |
| C/C(=C\C(=O)Nc1ccccc1C(=O)O)c1ccc2ccccc2c1 | 127 |  |
| CC[C@H](C)[N]1C=C(C)C2=C1C=C(C=C2C(=O)NC\C3=C(C)\C=C(\C)NC3=O)C4=CC=C(N=C4)N5CCNCC5 | 141 |  |
| C[N+]1(C)[C@@H]2C[C@@H](OC(=O)[C@H](CO)c3ccccc3)C[C@H]1[C@@H]1O[C@@H]12.[Br-] | 120 |  |
| CC(C)(O)CCc1ccc(OCc2cc(-c3cccc(OC(F)F)c3)c3ncccc3c2)cc1 | 143 |  |
| COc1cc(N[S+](=O)([O-])c2ccc(N)cc2)nc(OC)n1 | 142 |  |
| C\C1=N\N=C(\C2=CC=C(N)C=C2)C3=CC4=C(OCO4)C=C3C1 | 132 |  |
| CN1CCCN(C(=O)c2cccc(-c3ccc(/C=C4/C(=O)Nc5ccc(Cl)cc54)o3)c2)CC1 | 97.7 |  |
| O=[S+]([O-])(/N=C/c1c(O)ccc2ccccc12)c1cccs1 | 87.9 |  |
| CC(=O)OCC(CCn1cnc2cnc(N)nc21)COC(C)=O | 116 |  |
| O=[N+]([O-])c1cnc(Sc2nnc(O)n2-c2ccc3c(c2)OCCO3)s1 | 91.3 |  |
| N=C(N)NC(=O)c1nc(Cl)c(N)nc1N | 125 |  |
| CCN(CC)CCCCNc1ncc2c(n1)N(C)C(=O)N(c1c(Cl)c(OC)cc(OC)c1Cl)C2 | 99.8 |  |
| Cc1cc(Nc2cc(N3CCN(C)CC3)nc(Sc3ccc(NC(=O)C4CC4)cc3)n2)[nH]n1 | 86.3 |  |
| CC1CNc2c(cccc2[S+](=O)([O-])N[C@@H](CCCNC(=N)N)C(=O)N2CC[C@@H](C)C[C@@H]2C(=O)O)C1 (stereo partly drawn) | 125 |  |
| NC(=O)c1cnc(-c2ccc(C3(N)CCC3)cc2)c(-c2ccccc2)c1 | 103 |  |

| SMILES | viability (top concentration 46.1 µM) | further results |
| --- | --- | --- |
| CO[C@@H]1C(N(C)C(=O)c2ccccc2)C[C@H]2O[C@]1(C)n1c3ccccc3c3c4c(c5c6ccccc6n2c5c31)C(=O)NC4=O (stereo partly drawn) | 76.6 |  |
| O=NN(CCCl)C(=O)NC1CCCCC1 | 124 |  |
| CC(C)[C@H](CO)Nc1nc(Nc2ccc(C(=O)O)c(Cl)c2)c2ncn(C(C)C)c2n1 | 75.1 |  |
| C[C@]12CCC(=O)C(O)=C1CC[C@@H]1[C@@H]2CC[C@]2(C)C(=O)CC[C@@H]12 | 113 |  |
| CO/N=C(/C(=O)N[C@@H]1C(=O)N2C(C(=O)O)=C(CSC(=O)c3ccco3)CS[C@H]12)c1csc(N)n1 | 172 |  |
| C=C1/C(=C\C=C2/CCC[C@]3(C)[C@@H]([C@H](C)CCCC(C)(C)O)CC[C@@H]23)C[C@@H](O)C[C@@H]1O | 145 |  |
| CC(=O)SC[C@@H](C)C(=O)N1CCC[C@H]1C(=O)N[C@@H](Cc1ccccc1)C(=O)O | 135 |  |
| CC(C)[C@H](N)C(=O)OCCOC[N]1C=NC2=C1\N=C(N)/NC2=O | 107 |  |
| CCNC(=O)[C@H]1O[C@@H](n2cnc3c(N)nc(NCCc4ccc(CCC(=O)O)cc4)nc32)[C@H](O)[C@@H]1O | 112 |  |
| COc1cc([C@@H]2c3cc4c(cc3[C@@H](O[C@@H]3O[C@@H]5CO[C@@H](C)O[C@H]5[C@H](O)[C@H]3O)[C@H]3COC(=O)[C@H]23)OCO4)cc(OC)c1O | 124 |  |
| Cc1ccccc1C(C(=O)NC1CCCC1)N(C(=O)Cn1cnc2ccccc21)c1cccc(F)c1 (stereo not drawn) | 101 |  |
| c1ccc2c(Cc3c[nH]c4ccccc34)c[nH]c2c1 | 75.9 |  |
| COC1=C(OCCCN2CCOCC2)C=C3N=CC=C(OC4=CC=C(C=C4F)\C5=C\N=C(\NC6=CC=C(F)C=C6)N(C)C5=O)C3=C1 | 72.6 |  |
| Cc1nnc(N[S+](=O)([O-])c2ccc(N)cc2)s1 | 113 |  |
| O=C1CCc2ccc(OCCCCN3CCN(c4cccc(Cl)c4Cl)CC3)cc2N1 | 99.5 |  |
| CNC(=O)c1ccc(-c2cnc3ncc(Cc4ccc5ncccc5c4)n3n2)cc1F | 103 |  |
| O=C1CCC[C@@H]2[C@H]3CCCN4CCC[C@@H](CN12)[C@@H]34 | 117 |  |
| NC/1=N/C(=O)N(/C=N1)[C@@H]2O[C@H](CO)[C@@H](O)[C@H]2O | 103 |  |
| CCCCCCOC(=O)/N=C(/N)c1ccc(NCc2nc3cc(C(=O)N(CCC(=O)OCC)c4ccccn4)ccc3n2C)cc1 | 115 |  |
| CN(C)CCOc1ccc(/C(=C(/CCCl)c2ccccc2)c2ccccc2)cc1 | 104 |  |
| CO[C@H]1/C=C/O[C@@]2(C)Oc3c(C)c(O)c4c(O)c(c5c(nc6cc(C)ccn65)c4c3C2=O)NC(=O)/C(C)=C\C=C\[C@H](C)[C@H](O)[C@@H](C)[C@@H](O)[C@@H](C)[C@H](OC(C)=O)[C@@H]1C | 133 |  |
| CC(C)(C#N)c1cc(Cn2cncn2)cc(C(C)(C)C#N)c1 | 116 |  |
| C[C@]12Cc3cn[nH]c3C[C@@H]1CC[C@@H]1[C@@H]2CC[C@@]2(C)[C@H]1CC[C@]2(C)O | 108 |  |
| CN(C)c1ccccc1CN1CCCN(Cc2ccccc2N(C)C)C1c1ccncc1 | 97.4 |  |
| COc1cccc([C@@H](C)NCCCc2ccccc2Cl)c1 | 105 |  |
| C[C@@H](Oc1cc(-c2cnn(C3CCNCC3)c2)cnc1N)c1c(Cl)ccc(F)c1Cl | 76.6 |  |
